Reference: patent US20260001871A1, “TRIAZOLE DERIVATIVES AS MODULATORS OF MAS-RELATED G-PROTEIN RECEPTOR D” (ESCIENT PHARMACEUTICALS, INC., priority 2022, published 2026)

Target: human MRGPRD (Homo sapiens, UniProt Q8TDS7)
Experiment: MRGPRD antagonist activity, IP-One HTRF assay in CHO cells stably expressing human MRGPRD (versus 100 μM β-Alanine agonist)
Format: cell-based
Outline: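 IP-1 HTRF read-out, with IC50 from HTRF ratio curves and percent antagonism relative to maximal efficacy (mean, SEM). Antagonists and agonist were co-incubated 1 h at 37 °C plus 1 h at room temperature on overnight-plated MRGPRD-CHO cells in LiCl-containing Tris buffer, pH 8.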

Sequence of human MRGPRD (Q8TDS7 whole entry): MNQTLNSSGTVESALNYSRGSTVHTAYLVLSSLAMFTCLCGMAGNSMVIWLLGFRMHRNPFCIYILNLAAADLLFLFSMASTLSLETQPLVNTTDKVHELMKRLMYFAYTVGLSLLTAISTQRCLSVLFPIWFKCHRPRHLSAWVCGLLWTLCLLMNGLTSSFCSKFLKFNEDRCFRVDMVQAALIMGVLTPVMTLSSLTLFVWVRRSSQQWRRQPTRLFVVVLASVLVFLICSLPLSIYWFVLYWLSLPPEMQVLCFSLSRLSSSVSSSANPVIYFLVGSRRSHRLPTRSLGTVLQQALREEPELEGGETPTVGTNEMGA

SMILES | IC50
CN(C)C(=O)c1cccc(-c2ccc(-n3nnc(C(=O)Nc4ccncc4)c3C3CC3)cc2)c1 [Compound 7-204] | 1000 to 3000 nM
N#Cc1cc(NC(=O)c2nnn(-c3ccc(-c4ccccc4)cc3)c2C2CC2)ccn1 [Compound 14-26] | 500 to 1000 nM
O=C(Nc1cccc2nccn12)c1nnn(-c2ccc(-c3ccccc3)cc2)c1C1CC1 [Compound 14-65] | 1000 to 3000 nM
Cc1c(-c2cccc(-n3nnc(C(=O)Nc4ccncc4)c3C3CC3)c2)cnn1C [Compound 7-305] | 1000 to 3000 nM
Cc1ccc(CNC(=O)c2nnn(-c3ccc(-c4ccc(C#N)nc4)cc3)c2C(C)C)cn1 [Compound 17-33] | 1000 to 3000 nM
C[C@H](NC(=O)c1nnn(-c2ccc(-c3ccccc3)cc2)c1C1CC1)c1ccc(Cl)cc1 [Compound 14-28] | 1000 to 3000 nM
CC(C)Cn1nc(C(F)(F)F)cc1-c1ccc(-n2nnc(C(=O)Nc3ccncc3)c2C2CC2)cc1 [Compound 7-212] | 1000 to 3000 nM
O=C(Nc1ccncc1)c1nnn(-c2csc3ccccc23)c1C1CC1 [Compound 4-10] | 1000 to 3000 nM
CCc1ccc(-n2nnc(C(=O)Nc3ccncc3)c2C2CC2)cc1-c1cnn(C(C)C)c1 [Compound 7-304] | 1000 to 3000 nM
COc1cc(NC(=O)c2nnn(-c3ccc(-c4ccccc4)cc3)c2C2CC2)ccn1 [Compound 14-50] | 1000 to 3000 nM
N#Cc1ccc(-c2ccc(-n3nnc(C(=O)NC4(c5cccnc5)CC4)c3C3CC3)cc2)cc1 [Compound 18-3, 1-(4′-cyano-[1,1′-biphenyl]-4-yl)-5-cyclopropyl-N-(1-(pyridin-3-yl)cyclopropyl)-1H-1,2,3-triazole-4-carboxamide] | 500 to 1000 nM
Cc1nn(C)c2ccnc(NC(=O)c3nnn(-c4ccc(-c5ccccc5)cc4)c3C3CC3)c12 [Compound 14-51] | 1000 to 3000 nM
O=C(Nc1ccncc1)c1nnn(-c2ccc(-c3cccc(C(F)F)c3)cc2)c1C1CC1 [Compound 7-122] | 500 to 1000 nM
N#Cc1ccc(-c2cccc(-n3nnc(C(=O)NC4(c5cccnc5)CC4)c3C3CC3)c2)cc1 [Compound 7-9] | > 3000 nM
CC(C)Oc1ccccc1-c1ccc(-n2nnc(C(=O)Nc3ccncc3)c2C2CC2)cc1 [Compound 7-160] | 500 to 1000 nM
O=C(Nc1ccncc1)c1nnn(-c2ccc(-c3cccc(C(F)(F)F)c3)cc2)c1C1CC1 [Compound 7-155] | 500 to 1000 nM

SMILES | IC50
Cc1nn(C)c(C)c1-c1cccc(-n2nnc(C(=O)Nc3ccncc3)c2C2CC2)c1 [Compound 7-325] | 1000 to 3000 nM
Cc1cc(NC(=O)c2nnn(-c3ccc(-c4ccccc4)cc3)c2C(C)C)ccn1 [Compound 17-31] | 1000 to 3000 nM
Cc1cnn(C2CCCCO2)c1-c1ccc(-n2nnc(C(=O)Nc3ccncc3)c2C2CC2)cc1 (centres unmarked) [Compound 7-193] | 1000 to 3000 nM
CCn1nc(C)c(-c2ccc(-n3nnc(C(=O)NCc4ccc(C(C)C)nc4)c3C3CC3)cc2)c1C [Compound 9-21] | 100 to 500 nM
Cc1c2c(NC(=O)c3nnn(-c4ccc(-c5ccccc5)cc4)c3C3CC3)nccc2nn1C [Compound 14-39] | 1000 to 3000 nM
Cc1ccc(C2(NC(=O)c3nnn(-c4ccc(-c5ccc(C#N)cc5)cc4F)c3C3CC3)CC2)cn1 [Compound 7-227] | 100 to 500 nM
COc1ccccc1-c1ccc(-n2nnc(C(=O)Nc3ccncc3)c2C2CC2)c(C)c1 [Compound 7-244] | 500 to 1000 nM
Cc1c(NC(=O)c2nnn(-c3ccc(-c4ccccc4)cc3)c2C2CC2)nn(C)c1C [Compound 14-71] | > 3000 nM
CC(C)c1c(C(=O)NC2(c3cccnc3)CC2)nnn1-c1ccc(-c2ccc(C#N)c(F)c2)cc1 [Compound 18-26] | 1000 to 3000 nM
O=C(Nc1ccnc2[nH]ncc12)c1nnn(-c2ccc(-c3ccccc3)cc2)c1C1CC1 [Compound 14-29] | 1000 to 3000 nM
O=C(Nc1ccncc1)c1nnn(-c2ccc(-c3ccc(F)cc3)cc2)c1C1CC1 [Compound 7-65] | 100 to 500 nM
O=C(Nc1ccncc1)c1nnn(-c2ccc(-c3ccns3)cc2)c1C1CC1 [Compound 7-125] | 500 to 1000 nM
Cc1ccc(-n2nnc(C(=O)Nc3ccncc3)c2C2CC2)cc1O [Compound 4-4] | 1000 to 3000 nM
Cc1nn(C)c(C)c1-c1ccc(-n2nnc(C(=O)NCc3cccnc3)c2C(C)C)cc1 [Compound 17-22] | 100 to 500 nM
CO[C@H]1CC[C@H](NC(=O)c2nnn(-c3ccc(-c4ccccc4)cc3)c2C2CC2)CC1 [Compound 14-40] | 1000 to 3000 nM
Cc1nn(C(=O)c2nnn(-c3ccc(-c4ccccc4)cc3)c2C2CC2)c2cccc(N)c12 [Compound 14-4] | > 3000 nM

Continued, values first:

IC50 | SMILES
100 to 500 nM | COc1ccc(C2(NC(=O)c3nnn(-c4ccc(-c5c(C)nn6ccccc56)cc4)c3C(C)C)CC2)cn1 [Compound 19-4]
100 to 500 nM | CCn1cc(CNC(=O)c2nnn(-c3ccc(-c4ccc(C#N)cc4)cc3)c2C(C)C)cn1 [Compound 17-17]
100 to 500 nM | Cc1nn(C)c(C)c1-c1ccc(-n2nnc(C(=O)NCc3ccc(C(C)C)nc3)c2C2CC2)cc1 [Compound 9-9]
100 to 500 nM | Cc1ccc(CNC(=O)c2nnn(-c3ccc(-c4cnn(Cc5ccccc5)c4)cc3)c2C2CC2)cn1 [Compound 7-108]
100 to 500 nM | Cc1cc(NC(=O)c2nnn(-c3ccc(-c4ccc(CC#N)nc4)cc3)c2C2CC2)ccn1 [Compound 15-24]
100 to 500 nM | O=C(Nc1ccncc1)c1nnn(-c2ccc(-c3cnoc3)cc2)c1C1CC1 [Compound 7-105]
< 100 nM | CCn1cc(CNC(=O)c2nnn(-c3ccc(-c4c(C)nn(-c5ccccc5)c4C)cc3)c2C2CC2)cn1 [Compound 10-9]
100 to 500 nM | Cc1c(-c2cccc(-n3nnc(C(=O)Nc4ccncc4)c3C3CC3)c2)cnn1-c1ccccc1 [Compound 7-240]
100 to 500 nM | Cc1cc(NC(=O)c2nnn(-c3ccc(-c4ccc(C#N)cc4)cc3F)c2C2CC2)ccn1 [Compound 22-1, 1-(4′-cyano-3-fluoro-[1,1′-biphenyl]-4-yl)-5-cyclopropyl-N-(2-methylpyridin-4-yl)-1H-1,2,3-triazole-4-carboxamide]
100 to 500 nM | Cc1cc(NC(=O)c2nnn(-c3ccc(-c4ccc(C#N)c(F)c4)cc3)c2C2CC2)ccn1 [Compound 15-2]
< 100 nM | Cc1cc(NC(=O)c2nnn(-c3ccc(-c4c(C)nn(C)c4C)cc3F)c2C2CC2)ccn1 [Compound 7-220]
< 100 nM | Cc1ccc(CNC(=O)c2nnn(-c3ccc(-c4c(C)nn(C)c4C)cc3F)c2C2CC2)cn1 [Compound 21-1, 5-cyclopropyl-1-(2-fluoro-4-(1,3,5-trimethyl-1H-pyrazol-4-yl)phenyl)-N-((6-methylpyridin-3-yl)methyl)-1H-1,2,3-triazole-4-carboxamide]
< 100 nM | Cc1ccc(CNC(=O)c2nnn(-c3ccc(-c4c(C)nn(-c5ccccc5)c4C)cc3)c2C2CC2)cn1 [Compound 15-22]
100 to 500 nM | Cc1nn(C)c(C)c1-c1ccc(-n2nnc(C(=O)Nc3cccc(C#N)c3)c2C(C)C)cc1 [Compound 17-18]
100 to 500 nM | Cc1cc(NC(=O)c2nnn(-c3ccc(-c4ccc(C#N)cc4)c(F)c3)c2C2CC2)ccn1 [Compound 7-235]
100 to 500 nM | Cc1cc(NC(=O)c2nnn(-c3ccc(-c4ccc(C(F)F)nc4)cc3)c2C2CC2)ccn1 [Compound 15-20]
100 to 500 nM | Cc1ncccc1CNC(=O)c1nnn(-c2ccc(-c3cccc(CC#N)c3)cc2)c1C1CC1 [Compound 16-3]
100 to 500 nM | Cc1ccc(CNC(=O)c2nnn(-c3ccc(-c4c(C)nn5cccnc45)cc3)c2C2CC2)cn1 [Compound 10-5]
